US6346642B1, “Mixed crystals comprising aspartame and aspartame derivative and process for producing the same” (Ajinomoto Co., Inc., priority 1997, dated 2002)
Peptide text beside a SMILES is read from it.

Key:
[1] = Properties in quality of sweetness compared to sucrose (inventors' findings)
Text: It is strong in astringency (astringent taste) and badly-balanced for quality of sweetness as compared to sucrose. On the other hand, with respect to APM, its properties for quality of sweetness is weak in early taste, and strong in later taste, although they are not so bad as those in N-(3,3-dimethylbuty)-APM. Therefore, any one of both compounds has the properties for quality of sweetness which is weak in early taste, and strong in later taste, and thus is out of quality of sweetness, taking into account the fact that sucrose is natural in sweetness.

[2] = relative to sucrose, by weight ratio; cited from earlier work

| Structure (SMILES) | quality of sweetness (balance) [1] | astringency (astringent taste) ([1]; quality of sweetness) | early taste (tastes sweet as early as sucrose) ([1]; quality of sweetness) | later taste (tastes sweet later than sucrose) ([1]; quality of sweetness) | sweetening potency [2] |
| --- | --- | --- | --- | --- | --- |
| COC(=O)[C@H](Cc1ccccc1)NC(=O)[C@H](CC(=O)O)NCCC(C)(C)C [N-(3,3-dimethylbutyl)-APM, N-[N-(3,3-dimethylbutyl)-L-α-aspartyl]-L-phenylalanine methyl ester] | badly-balanced | strong | extremely weak | extremely strong | 10,000 times by weight ratio that of |
| COC(=O)[C@H](Cc1ccccc1)NC(=O)[C@@H](N)CC(=O)O [APM, aspartame] (H-Asp-Phe-OMe) |  |  | weak | strong |  |
